Target: β-tubulin (Sus scrofa, UniProt P02554+Q2XVP4)
Test: X-ray crystal structure
Assay type: binding

Sequence of β-tubulin (Q2XVP4 whole entry): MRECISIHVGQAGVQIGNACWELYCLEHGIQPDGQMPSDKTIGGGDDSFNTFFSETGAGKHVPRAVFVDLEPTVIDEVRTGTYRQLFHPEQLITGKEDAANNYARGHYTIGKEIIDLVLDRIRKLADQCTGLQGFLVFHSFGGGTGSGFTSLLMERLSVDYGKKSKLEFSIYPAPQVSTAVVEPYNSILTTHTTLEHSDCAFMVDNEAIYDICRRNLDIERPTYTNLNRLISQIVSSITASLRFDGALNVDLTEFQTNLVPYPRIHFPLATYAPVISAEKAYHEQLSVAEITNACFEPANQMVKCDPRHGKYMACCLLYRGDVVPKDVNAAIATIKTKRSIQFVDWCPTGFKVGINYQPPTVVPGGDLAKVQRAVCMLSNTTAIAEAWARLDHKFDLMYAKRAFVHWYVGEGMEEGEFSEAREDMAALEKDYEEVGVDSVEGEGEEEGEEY
Sequence of β-tubulin (P02554 whole entry): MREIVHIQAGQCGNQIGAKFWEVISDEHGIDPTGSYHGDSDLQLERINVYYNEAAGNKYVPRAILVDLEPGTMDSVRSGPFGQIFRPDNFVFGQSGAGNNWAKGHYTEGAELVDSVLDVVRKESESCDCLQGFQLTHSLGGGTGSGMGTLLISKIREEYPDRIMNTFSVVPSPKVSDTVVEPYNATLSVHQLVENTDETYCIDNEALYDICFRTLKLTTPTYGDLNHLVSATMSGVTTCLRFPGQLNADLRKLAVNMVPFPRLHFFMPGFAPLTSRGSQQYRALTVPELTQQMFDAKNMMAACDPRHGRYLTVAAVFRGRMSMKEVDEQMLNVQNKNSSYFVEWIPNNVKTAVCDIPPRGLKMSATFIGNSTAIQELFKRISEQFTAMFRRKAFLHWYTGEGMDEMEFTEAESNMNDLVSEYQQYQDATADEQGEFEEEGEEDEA

Question: For `CCCCc1ccc2[nH]c(NC(=O)OC)nc2c1` [parbendazole], which Kd is on record?
Answer: 3.39 µM
